Data as given in patent publication US12312359B2 (Vitae Pharmaceuticals, LLC, priority 2016, dated 2025).

How the values were obtained:
[1] = system: human acute monocytic leukemia cell line MV-4-11; assay: Assay 2: cell proliferation assay (ATP quantitation, CellTiter-Glo), MV-4-11; format: cell-based; details: MV-4-11 cells
Method in brief: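 MV-4-11 cells, 1.67×10^4 per well in medium with 10% FBS, were exposed to compound for 72 h at 37° C., 5% CO2; HL-60 cells served as toxicity control. Proliferation read as ATP content by CellTiter-Glo luminescence.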

[2] = target: T1, biotinylated wild-type menin and MLL-AF9 fusion protein (menin/MLL binding) (Homo sapiens, UniProt O00255); assay: Assay 1: menin/MLL binding AlphaLISA assay, wild-type menin; details: Table 30; column head does not say wild-type or mutated menin
T1 construct: made in house; host or cells: menin: E. coli; MLL-AF9-FLAG: HEK293 cells, used as cleared lysate
T1 sequence (O00255 1-610): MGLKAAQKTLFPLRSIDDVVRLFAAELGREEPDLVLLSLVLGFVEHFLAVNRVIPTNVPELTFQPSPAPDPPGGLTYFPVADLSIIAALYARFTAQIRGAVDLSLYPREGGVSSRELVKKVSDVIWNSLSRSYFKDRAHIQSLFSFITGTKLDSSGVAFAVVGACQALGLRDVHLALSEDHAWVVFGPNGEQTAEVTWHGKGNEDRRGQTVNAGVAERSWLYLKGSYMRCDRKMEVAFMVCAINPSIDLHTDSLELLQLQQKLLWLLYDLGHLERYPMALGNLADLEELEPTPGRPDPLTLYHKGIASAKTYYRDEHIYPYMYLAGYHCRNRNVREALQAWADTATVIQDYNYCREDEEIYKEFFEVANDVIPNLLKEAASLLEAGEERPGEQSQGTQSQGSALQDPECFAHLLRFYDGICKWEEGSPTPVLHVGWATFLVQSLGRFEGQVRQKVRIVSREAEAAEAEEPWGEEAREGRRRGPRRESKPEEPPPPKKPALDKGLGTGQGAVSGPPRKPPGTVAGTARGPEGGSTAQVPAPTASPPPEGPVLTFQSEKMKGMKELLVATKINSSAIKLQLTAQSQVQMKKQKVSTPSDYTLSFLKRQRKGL
Method in brief: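 Compound was preincubated 30 min at room temperature with biotinylated menin (5 nM) and MLL-AF9-FLAG lysate from HEK293 cells, pH 7.4 buffer with 5% DMSO and DTT. Bead-based Alpha signal after 60 min with streptavidin donor and anti-FLAG acceptor beads; four-parameter logistic fit gave IC50.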

Molecule	EC50 ([1]; Homo sapiens, MV4-11, 72 h) [nM]	IC50 [2] [nM]	EC50 ([1]; 72 h) [nM]
CC(C)N(C(=O)c1cc(F)ccc1Oc1cncnc1N1CC2(CC(NC3CCOCC3)C2)C1)C(C)C [Example 239, 5-fluoro-N,N-diisopropyl-2-((4-(6-((tetrahydro-2H-pyran-4-yl)amino)-2-azaspiro[3.3]heptan-2-yl)pyrimidin-5-yl)oxy)benzamide]	< 100	< 100	–
CC(C)C(=O)N(CC(N)=O)c1cc(F)ccc1Oc1cncnc1N1CCC2(CCN(Cc3ccc4[nH]c(=O)[nH]c4c3)C2)C1 (stereo not drawn) [Example 73, N-(2-amino-2-oxoethyl)-N-(5-fluoro-2-((4-(7-((2-oxo-2,3-dihydro-1H-benzo[d]imidazol-5-yl)methyl)-2,7-diazaspiro[4.4]nonan-2-yl)pyrimidin-5-yl)oxy)phenyl)isobutyramide]	100 to 1000	< 100	–
CC(C)N(C(=O)c1cc(F)ccc1Oc1cncnc1N1CC2(CCN(CC3CCC4(CC3)OCCO4)CC2)C1)C(C)C [Example 100, 2-((4-(7-((1,4-dioxaspiro[4.5]decan-8-yl)methyl)-2,7-diazaspiro[3.5]nonan-2-yl)pyrimidin-5-yl)oxy)-5-fluoro-N,N-diisopropylbenzamide]	100 to 1000	< 100	–
COCCn1c(=O)[nH]c2cc(CN3CCC4(CCN(c5ncncc5Oc5ccc(F)cc5C(=O)N(C)C(C)C)C4)C3)ccc21 (stereo not drawn) [Example 129, 5-fluoro-N-isopropyl-2-((4-(7-((1-(2-methoxyethyl)-2-oxo-2,3-dihydro-1H-benzo[d]imidazol-5-yl)methyl)-2,7-diazaspiro[4.4]nonan-2-yl)pyrimidin-5-yl)oxy)-N-methyl-benzamide]	100 to 1000	< 100	–
CC(O)c1ccccc1-c1cc(F)ccc1Oc1cncnc1N1CCC2(CCN(Cc3ccc4[nH]c(=O)[nH]c4c3)C2)C1 (stereo not drawn) [Example 60, 5-((7-(5-((5-fluoro-2′-(1-hydroxyethyl)-[1,1′-biphenyl]-2-yl)oxy)pyrimidin-4-yl)-2,7-diazaspiro[4.4]nonan-2-yl)methyl)-1H-benzo[d]imidazol-2(3H)-one]	100 to 1000	< 100	–
CCN(C(=O)c1cc(F)ccc1Oc1cncnc1N1CCC2(CCN(Cc3ccc4c(c3)[nH]c(=O)n4CCO)C2)C1)C(C)C (stereo not drawn) [Example 4, N-ethyl-5-fluoro-2-((4-(7-((1-(2-hydroxyethyl)-2-oxo-2,3-dihydro-1H-benzo[d]imidazol-5-yl)methyl)-2,7-diazaspiro[4.4]nonan-2-yl)pyrimidin-5-yl)oxy)-N-isopropylbenzamide]	< 100	< 100	–
CCN(C(=O)C(C)C)c1cc(F)ccc1Oc1cncnc1N1CC2(CCN(C[C@H]3CC[C@H](NS(C)(=O)=O)CC3)CC2)C1 [Example 86, N-ethyl-N-(5-fluoro-2-((4-(7-(((1r,4r)-4-(methylsulfonamido)cyclohexyl)methyl)-2,7-diazaspiro [3.5]nonan-2-yl)pyrimidin-5-yl)oxy)phenyl)iso-butyramide]	< 100	< 100	–
N[C@H]1CC[C@H](CCN2CC3(C2)CN(c2ncncc2Oc2ccc(F)cc2-c2cccnc2C2CC2)C3)CC1 [Example 82, (1r,4r)-4-(2-(6-(5-(2-(2-cyclopropylpyridin-3-yl)-4-fluorophenoxy)pyrimidin-4-yl)-2,6-diazaspiro[3.3]heptan-2-yl)ethyl)cyclohexan-1-amine]	100 to 1000	< 100	–
COC(=O)[C@@H]1CC1c1cc(F)ccc1Oc1cncnc1N1CCC2(CCN(Cc3ccc4[nH]c(=O)[nH]c4c3)C2)C1 (stereo partly drawn) [Example 37, Methyl 2-(5-fluoro-2-((4-(7-((2-oxo-2,3-dihydro-1H-benzo[d]imidazol-5-yl)methyl)-2,7-diazaspiro[4.4]nonan-2-yl)pyrimidin-5-yl)oxy)phenyl)cyclopropanecarboxylate]	100 to 1000	< 100	–
2-((4-(7-(((1r,4r)-4- (3,3- dimethylureido)cyclo- hexyl) methyl)- 2,7-diazaspiro [3.5]nonan-2- yl)pyrimidin-5- yl)oxy)-5-fluoro- N,N-diisopropyl benzamide [Example 97]	–	< 100	100 to 1000
N#Cc1ccc2c(CN3CCC4(CCN(c5ncncc5Oc5ccc(F)cc5OC5CCCC5)C4)C3)c[nH]c2c1 (stereo not drawn) [Example 192, 3-((7-(5-(2-(cyclopentyloxy)-4-fluorophenoxy)pyrimidin-4-yl)-2,7-diazaspiro[4.4]nonan-2-yl)methyl)-1H-indole-6-carbonitrile]	100 to 1000	< 100	–
CC(C)N(C)C(=O)c1cc(F)ccc1Oc1cncnc1N1CC2(CCN(C[C@H]3CC[C@H](NC(=O)OC(C)(C)C)CC3)CC2)C1 [Example 94, tert-butyl ((1r,4r)-4-((2-(5-(4-fluoro-2-(isopropyl(methyl)carbamoyl)phenoxy)pyrimidin-4-yl)-2,7-diazaspiro[3.5]nonan-7-yl)methyl)cyclohexyl) carbamate]	100 to 1000	< 100	–
N#Cc1ccc(-c2cc(F)ccc2Oc2cncnc2N2CC3(CN(CC4CCC(O)CC4)C3)C2)c(C2CC2)c1 (stereo not drawn) [Example 151, 2-cyclopropyl-5′-fluoro-2′-((4-(6-((4-hydroxycyclohexyl)methyl)-2,6-diazaspiro[3.3]heptan-2-yl)pyrimidin-5-yl)oxy)-[1,1′-biphenyl]-4-carbonitrile]	≥ 1000	< 100	–
CC(C)C(=O)c1cc(F)ccc1Oc1cncnc1N1CCC2(CCN(Cc3ccc4c(c3)NC(=O)C4(C)C#N)C2)C1 (stereo not drawn) [Example 11, 6-((7-(5-(4-fluoro-2-isobutyrylphenoxy)pyrimidin-4-yl)-2,7-diazaspiro[4.4]nonan-2-yl)methyl)-3-methyl-2-oxoindoline-3-carbonitrile]	< 100	< 100	–
CC(C)n1nccc1-c1cc(F)ccc1Oc1cncnc1N1CCC2(CCN(Cc3ccc4nn[nH]c4c3)C2)C1 (stereo not drawn) [Example 198, 6-((7-(5-(4-fluoro-2-(1-isopropyl-1H-pyrazol-5-yl)phenoxy)pyrimidin-4-yl)-2,7-diazaspiro[4.4]nonan-2-yl)methyl)-1H-benzo[d][1,2,3] triazole]	< 100	< 100	–
N#Cc1ccc(-c2cc(F)ccc2Oc2cncnc2N2CCC3(CCN(Cc4ccc5[nH]c(=O)[nH]c5c4)C3)C2)c(C2CC2)c1 (single isomer, unassigned) [Example 42B, 2-cyclopropyl-5′-fluoro-2′-((4-(7-((2-oxo-2,3-dihydro-1H-benzo[d]imidazol-5-yl)methyl)-2,7-diazaspiro[4.4]nonan-2-yl)pyrimidin-5-yl)oxy)-[1,1′-biphenyl]-4-carbonitrile]	–	< 100	< 100
CCN(C(=O)C(C)C)c1cc(F)ccc1Oc1cncnc1N1CC2(CCN(CC(C)C)C2)C1 [Example 136, N-ethyl-N-(5-fluoro-2-((4-(6-isobutyl-2,6-diazaspiro[3.4]octan-2-yl)pyrimidin-5-yl)oxy)phenyl)iso-butyramide]	100 to 1000	< 100	–
N#Cc1ccc(-c2cc(F)ccc2Oc2cncnc2N2CCC3(CCN(Cc4ccc5c(c4)CC(=O)N5)C3)C2)c(C2CC2)c1 (stereo not drawn) [Example 204, 2-cyclopropyl-5′-fluoro-2′-((4-(7-((2-oxoindolin-5-yl)methyl)-2,7-diazaspiro[4.4]nonan-2-yl)pyrimidin-5-yl)oxy)-[1,1′-biphenyl]-4-carbonitrile]	100 to 1000	< 100	–
